In PubChem BioAssay AID1419 (Emory University Molecular Libraries Screening Center, 2008):
Activity calls are given as the source filed them. No rule for the calls is given here.

Test: EBV protein-peptide binding inhibitors, dose response, biochemical, fluorescence polarization (AID 1419)
Conditions: cell-free protein-peptide binding, 2 h; for fold change: measured here: P channel fold over control, at 54 µM

NC(=O)c1c(NC(=O)CSc2nnc(-c3ccco3)n2-c2ccccc2)sc2c1CCC2
IC50: 46 µM (inactive) | fold change: 0.977

O=C(OCCN1C(=O)c2cccc3c(N4CCOCC4)ccc(c23)C1=O)c1ccc(Cl)cc1
IC50: 4.07 µM | fold change: 53.3

CCOC(=O)Cc1csc(SCC(=O)Nc2sc3c(c2C(N)=O)CCC3)n1
IC50: > 54 µM (inactive) | fold change: 1.09

Cc1n[nH]c(C)c1N1C(=O)c2cccc3c(N4CCCCCC4)ccc(c23)C1=O
IC50: < 0.42 µM | fold change: 88.6

O=C(OCCN1C(=O)c2cccc3c(N4CCOCC4)ccc(c23)C1=O)c1ccccc1Cl
IC50: 2.87 µM | fold change: 65.4

CC(=O)[C@@H]1[C@@H]2C(=O)N(C3CCCCC3)C(=O)[C@@H]2C2c3ccccc3C=CN21 (some centres undefined)
IC50: 51.9 µM (inactive) | fold change: 2

O=C1c2cccc3c(O)ccc(c23)C(=O)N1Cc1ccccc1
IC50: < 0.42 µM | fold change: 138

CCOC(=O)CC(=O)CSc1nc(-c2cccnc2)ccc1C#N
IC50: > 54 µM (inactive) | fold change: 1.63

COc1ccc(NC(=O)Cn2ncc(Cl)c(Cl)c2=O)cc1S(=O)(=O)N1CCOCC1
IC50: > 54 µM (inactive) | fold change: 0.96

O=C1CCCC2=C1Sc1ccccc1N2
IC50: 5.07 µM | fold change: 1.99

O=C(N=Nc1c(O)[nH]c2ccc([N+](=O)[O-])cc12)c1cc(-c2ccccc2Cl)nc2ccccc12
IC50: 4.56 µM | fold change: 1.03

O=C1N=c2ccccc2=C1c1sc(Nc2ccc(O)cc2)nc1O
IC50: 1.88 µM | fold change: 0.2

N=c1oc2cc(O)ccc2cc1C(=O)Nc1ccccn1
IC50: 6.67 µM | fold change: 5.39

CCO[C@H]1OC(C(=O)N2CCCCCCC2)=C[C@@H](c2ccc(C(F)(F)F)cc2)[C@@H]1CCCO
IC50: > 54 µM (inactive) | fold change: 0.95

Cc1ncc([N+](=O)[O-])n1Cc1cccc2ccccc12
IC50: > 54 µM (inactive) | fold change: 0.957

CC(C)COc1ccc(C(=O)NC(CC(C)C)C(=O)O)cc1 (centres undefined)
IC50: > 54 µM (inactive) | fold change: 1.07

O=C1c2cccc3c(N4CCCCC4)ccc(c23)C(=O)N1c1ccccn1
IC50: < 0.42 µM | fold change: 11.5

Cc1ccc(C)c(-n2c3nc(=O)[nH]c(=O)c-3cc3cc([N+](=O)[O-])ccc32)c1
IC50: 8.3 µM | fold change: 2.52

CCc1ccc[n+](-c2[nH]c(=O)sc2/C=N/NC([S-])=Nc2ccccc2)c1
IC50: 22.1 µM | fold change: 2.13

O=C1c2cccc3c([N+](=O)[O-])ccc(c23)C(=O)N1CC1CCCO1 (centres undefined)
IC50: 13.8 µM | fold change: 2.37

COC(=O)c1ccc2c(c1)SC1=C(CCCC1=O)N2
IC50: 1.44 µM | fold change: 3.08

COc1ccc(Cc2nnc(NC(=O)Cc3cccs3)s2)cc1
IC50: > 54 µM (inactive) | fold change: 1.04

CC(C)N(C(=O)C[n+]1ccc(/C=N/O)cc1)C(C)C
IC50: > 54 µM (inactive) | fold change: 1.05

NS(=O)(=O)c1ccc(NC(=O)c2ccc(-c3ccccc3)cc2)cc1
IC50: 25.1 µM | fold change: 1.08

O=C(O)COn1c(-c2ccccc2)nc2ccc([N+](=O)[O-])cc21
IC50: > 54 µM (inactive) | fold change: 1.17

Cc1cc2nc3c(=O)n(C4CCCCC4)c(=O)[nH]c3nc2cc1N
IC50: < 0.42 µM | fold change: 132

O=C(c1ccco1)[C@@H]1[C@@H]2C(=O)N(c3ccc(F)cc3)C(=O)[C@@H]2C2c3ccccc3C=CN21 (some centres undefined)
IC50: 6.26 µM | fold change: 2.53

O=C(O)c1ccccc1C1=Nc2ccc(O)cc2Oc2cc(O)ccc21
IC50: < 0.42 µM | fold change: 14.2

CC(=O)Oc1ccc(C(=O)Nc2cccc(C(=O)c3cccc(NC(=O)c4ccc(OC(C)=O)cc4)c3)c2)cc1
IC50: > 54 µM (inactive) | fold change: 0.997

COc1ccc(CCNc2nc(-c3cccnc3)cs2)cc1OC
IC50: > 54 µM (inactive) | fold change: 1.04

COC(=O)c1cc2c(-c3ccccc3)cc3ccccn3c-2c1C(=O)OC
IC50: 27 µM | fold change: 1.65

O=c1[nH]c(=S)n(-c2ccc(Br)cc2)c(O)c1C=Nc1ccc(N2CCOCC2)cc1
IC50: 3.54 µM | fold change: 5.78

O=C(CSc1nc(-c2ccccc2)nc2c1Cc1ccccc1O2)Nc1ccc(C(=O)O)cc1
IC50: 1.64 µM | fold change: 1.12

O=C(NCc1ccco1)c1c2c(nc3ccccc13)CCC2
IC50: > 54 µM (inactive) | fold change: 1.05

CCSc1nc2sc3c(c2c(=O)[nH]1)CCCC3
IC50: > 54 µM (inactive) | fold change: 1.05

Cc1cc(-c2ccccc2)c(C#N)c(=S)[nH]1
IC50: > 54 µM (inactive) | fold change: 1.04

CCCCOC(=O)Cn1c2ccc(OC)cc2c2nc3ccccc3nc21
IC50: 4.54 µM | fold change: 5.84

CC(=O)Nc1ccc2cc3ccc(NC(C)=O)cc3nc2c1
IC50: 0.56 µM | fold change: 12.5

CCCNC(=O)COC(=O)c1[nH]c(C)c(C(=O)OCC)c1C
IC50: > 54 µM (inactive) | fold change: 0.937

O=C(c1ccccc1)c1ccc2c(c1)OCCCO2
IC50: > 54 µM (inactive) | fold change: 1.02

O=[N+]([O-])c1ccc(-c2cn(-c3ccc(Cl)cc3)c(=S)[nH]2)cc1
IC50: > 54 µM (inactive) | fold change: 0.93

Nc1cccc2c1C(=O)N(CC(=O)NC13CC4CC(CC(C4)C1)C3)C2=O
IC50: 8.06 µM | fold change: 2.22

O=[N+]([O-])c1ccc(N2N=C(c3ccco3)CC2c2ccccc2)cc1 (centres undefined)
IC50: 14.2 µM | fold change: 2.85

Cc1ccc([N+](=O)[O-])cc1-c1ccc(/C=C(\C#N)c2[nH]nc(N)c2C#N)o1
IC50: > 54 µM (inactive) | fold change: 0.727

Cc1nnc(NC(=O)COc2ccc3c(C)cc(=O)oc3c2)s1
IC50: > 54 µM (inactive) | fold change: 1.06

C=CCOc1cccc(C2C(C(=O)c3ccc(C)o3)=C(O)C(=O)N2c2nccs2)c1 (centres undefined)
IC50: < 0.42 µM | fold change: 4.84

Cc1ccc(N=C2NC(=O)/C(=C/c3cn(C)c4ccccc34)S2)cc1C
IC50: 4.47 µM | fold change: 7.74

CC(=O)N1CCCc2cc(S(=O)(=O)N(CC(C)C)CC(C)C)ccc21
IC50: > 54 µM (inactive) | fold change: 0.967

Cc1nn(-c2ccccc2)c(N2CCCC2)c1/C=C1\N=C(c2ccc(F)cc2)OC1=O
IC50: 7.44 µM | fold change: 5.64

CC(C)(C)c1ccc(OCC(=O)Nc2ccc3c4c(cccc24)C(=O)NC3=O)cc1
IC50: > 54 µM (inactive) | fold change: 2.15

CCN1C(=O)/C(=C\c2ccc(-c3ccc([N+](=O)[O-])cc3OC)o2)SC1=Nc1cccc(C(=O)O)c1
IC50: > 54 µM (inactive) | fold change: 0.573

CN(C)c1ccc(N=Cc2nc(-c3ccccc3)oc2O)cc1
IC50: 6.01 µM | fold change: 21.1

COC(=O)C1C=C2c3cccc4[nH]cc(c34)CC2N(C)C1 (centres undefined)
IC50: 1.66 µM | fold change: 6.81

Cc1ccc(N2C(=O)C3C(C2=O)C(C(=O)c2ccc(Cl)cc2)N2CCCC32)cc1 (centres undefined)
IC50: > 54 µM (inactive) | fold change: 2.44

Cc1cccc(C)c1NC(=O)COC(=O)c1c2c(nc3ccccc13)/C(=C\c1ccc3c(c1)OCO3)CCC2
IC50: > 54 µM (inactive) | fold change: 1.32

Oc1oc(-c2ccccc2)nc1C=Nc1cccc2ccccc12
IC50: 7.47 µM | fold change: 3.16

O=C(CSc1nc2ncccc2[nH]1)Nc1ccc2c(c1)OCO2
IC50: > 54 µM (inactive) | fold change: 1.02
